Assay results: US9688710B2, “Inhibitors of sodium glucose cotransporter 1” (LEXICON PHARMACEUTICALS, INC., priority 2012, dated 2017)

Legend:
[1] = molecular target: Human sodium/glucose co-transporter type 1 (SGLT1) (Homo sapiens (Human), UniProt P13866); experiment: In vitro human SGLT1 inhibition assay (14C-AMG uptake); assay type: cell-based; parameters: key to SGLT1 (human SGLT1 IC50): ***: a value less than 0.01 μM; **: a value less than 0.1 μM; *: a value less than 1 μM; —: a value not measured or exceeding μM; details: HEK293 cells expressing human HA-SGLT1, 14C-AMG uptake
How it was run: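 HEK293 cells stably expressing human HA-tagged SGLT1 (30,000/well, overnight) were washed into Na+-containing uptake buffer (140 mM NaCl, HEPES/Tris, 1 mg/mL BSA, pH 7.3). Cells then received compound plus 100 nCi 14C-AMG for 1–2 h at 37 °C; after washing, AMG uptake was quantified by scintillation counting.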

[2] = molecular target: Human sodium/glucose co-transporter type 2 (SGLT2) (Homo sapiens (Human), UniProt P31639); experiment: In vitro human SGLT2 inhibition assay (14C-AMG uptake); assay type: cell-based; details: HEK293 cells expressing human HA-SGLT2, 14C-AMG uptake
How it was run: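 HEK293 cells stably expressing HA-tagged human SGLT2, seeded overnight, washed into Na+-containing HEPES/Tris uptake buffer with 1 mg/mL BSA, pH 7.3. Compound added, then 14C-AMG (100 nCi); 1-2 h at 37 °C, 5% CO2. Washed cells counted by scintillation for 14C-AMG uptake.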

Human sodium/glucose co-transporter type 2 (SGLT2), sequence (P31639 whole entry): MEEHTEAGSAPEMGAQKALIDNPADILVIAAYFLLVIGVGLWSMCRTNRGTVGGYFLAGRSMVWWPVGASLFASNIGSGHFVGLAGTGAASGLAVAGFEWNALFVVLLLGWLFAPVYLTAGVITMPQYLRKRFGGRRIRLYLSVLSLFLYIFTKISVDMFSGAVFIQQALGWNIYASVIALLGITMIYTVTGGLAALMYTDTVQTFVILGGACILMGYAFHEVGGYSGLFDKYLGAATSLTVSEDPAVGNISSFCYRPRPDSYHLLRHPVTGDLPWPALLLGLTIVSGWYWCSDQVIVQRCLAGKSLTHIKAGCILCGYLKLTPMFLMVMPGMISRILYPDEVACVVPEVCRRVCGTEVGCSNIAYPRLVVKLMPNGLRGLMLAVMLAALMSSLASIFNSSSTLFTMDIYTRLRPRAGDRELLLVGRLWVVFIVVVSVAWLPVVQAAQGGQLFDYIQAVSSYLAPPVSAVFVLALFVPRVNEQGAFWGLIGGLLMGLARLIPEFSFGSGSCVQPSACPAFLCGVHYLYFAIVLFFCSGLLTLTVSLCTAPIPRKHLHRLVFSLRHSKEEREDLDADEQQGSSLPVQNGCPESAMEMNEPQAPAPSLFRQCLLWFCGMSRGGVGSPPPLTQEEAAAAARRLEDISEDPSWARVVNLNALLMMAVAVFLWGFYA
Human sodium/glucose co-transporter type 1 (SGLT1), sequence (P13866 whole entry): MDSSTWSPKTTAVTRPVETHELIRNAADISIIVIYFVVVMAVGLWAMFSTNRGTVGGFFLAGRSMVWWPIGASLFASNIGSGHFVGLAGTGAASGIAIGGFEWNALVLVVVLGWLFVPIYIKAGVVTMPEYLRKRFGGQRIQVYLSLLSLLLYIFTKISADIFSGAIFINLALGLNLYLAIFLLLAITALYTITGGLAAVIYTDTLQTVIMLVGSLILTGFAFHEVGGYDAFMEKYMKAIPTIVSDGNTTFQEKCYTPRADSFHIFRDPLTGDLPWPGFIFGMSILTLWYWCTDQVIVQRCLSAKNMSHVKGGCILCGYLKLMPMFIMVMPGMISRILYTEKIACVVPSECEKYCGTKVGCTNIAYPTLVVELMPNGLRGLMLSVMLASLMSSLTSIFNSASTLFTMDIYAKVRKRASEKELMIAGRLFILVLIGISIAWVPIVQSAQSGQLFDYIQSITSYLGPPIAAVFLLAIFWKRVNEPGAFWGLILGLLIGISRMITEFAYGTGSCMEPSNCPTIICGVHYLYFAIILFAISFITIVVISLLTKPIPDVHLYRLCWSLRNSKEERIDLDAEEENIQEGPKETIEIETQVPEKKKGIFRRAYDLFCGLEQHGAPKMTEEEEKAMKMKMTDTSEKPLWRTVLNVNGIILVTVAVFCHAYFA

| Compound | IC50 [1] | IC50 [2] | SGLT1 (human SGLT1 IC50) [1] |
| --- | --- | --- | --- |
| CS[C@H]1O[C@@H](c2ccc(C)c(Cc3ccc(CCCC(=O)NCCCC[C@H](N)C(=O)O)cc3)c2)[C@H](O)[C@@H](O)[C@@H]1O [(S)-2-amino-6-(4-(4-(2-methyl-5-((2S,3R,4R,5S,6R)-3,4,5-trihydroxy-6-(methylthio)tetrahydro-2H-pyran-2-yl)benzyl)phenyl)butanamido)hexanoic acid] | < 10 nM | < 10 nM |  |
| CS[C@H]1O[C@@H](c2ccc(C)c(Cc3ccc(CCCC(=O)NC(C)(C)C(=O)N4CCOCC4)cc3)c2)[C@H](O)[C@@H](O)[C@@H]1O [N-(2-methyl-1-morpholino-1-oxopropan-2-yl)-4-(4-(2-methyl-5-((2S,3R,4R,5S,6R)-3,4,5-trihydroxy-6-(methylthio)tetrahydro-2H-pyran-2-yl)benzyl)phenyl)butanamide] | < 10 nM | < 10 nM |  |
| CS[C@H]1O[C@@H](c2ccc(C)c(Cc3ccc(OCCCC(=O)NC(C)(C)C(=O)NCCN(C)C)cc3)c2)[C@H](O)[C@@H](O)[C@@H]1O [N-(1-((2-(dimethylamino)ethyl)amino)-2-methyl-1-oxopropan-2-yl)-4-(4-(2-methyl-5-((2S,3R,4R,5S,6R)-3,4,5-trihydroxy-6-(methylthio)tetrahydro-2H-pyran-2-yl)benzyl)phenoxy)butanamide] | < 10 nM | < 10 nM |  |
| CS[C@H]1O[C@@H](c2ccc(C)c(Cc3ccc(OCCCC(=O)NC(C)(C)C(N)=O)cc3)c2)[C@H](O)[C@@H](O)[C@@H]1O [N-(1-amino-2-methyl-1-oxopropan-2-yl)-4-(4-(2-methyl-5-((2S,3R,4R,5S,6R)-3,4,5-trihydroxy-6-(methylthio)tetrahydro-2H-pyran-2-yl)benzyl)phenoxy)butanamide] | < 10 nM | < 10 nM |  |
| CS[C@H]1O[C@@H](c2ccc(C)c(Cc3ccc(OCCCC(=O)O)cc3)c2)[C@H](O)[C@@H](O)[C@@H]1O [4-(4-(2-methyl-5-((2S,3R,4R,5S,6R)-3,4,5-trihydroxy-6-(methylthio)tetrahydro-2H-pyran-2-yl)benzyl)phenoxy)butanoic acid] |  | < 100 nM | — |
| CS[C@H]1O[C@@H](c2ccc(C)c(Cc3ccc(OCCCC(=O)NC(CO)CO)cc3)c2)[C@H](O)[C@@H](O)[C@@H]1O [N-(1,3-dihydroxypropan-2-yl)-4-(4-(2-methyl-5-((2S,3R,4R,5S,6R)-3,4,5-trihydroxy-6-(methylthio)tetrahydro-2H-pyran-2-yl)benzyl)phenoxy)butanamide] | < 10 nM | < 10 nM |  |
| Cc1ccc([C@@H]2O[C@H]([S+](C)[O-])[C@@H](O)[C@H](O)[C@H]2O)cc1Cc1ccc(CCCC(=O)NC(C)(C)C(=O)N2CCN(C)CC2)cc1 (stereo partly drawn) [N-(2-methyl-1-(4-methylpiperazin-1-yl)-1-oxopropan-2-yl)-4-(4-(2-methyl-5-((2S,3R,4R,5S,6R)-3,4,5-trihydroxy-6-(methylsulfinyl)tetrahydro-2H-pyran-2-yl)benzyl)phenyl)butanamide] | < 100 nM | < 10 nM |  |
| CS[C@H]1O[C@@H](c2ccc(C)c(Cc3ccc(CCCCCNCc4ccccc4)cc3)c2)[C@H](O)[C@@H](O)[C@@H]1O [(2S,3R,4R,5S,6R)-2-(3-(4-(5-(benzylamino)pentyl)benzyl)-4-methylphenyl)-6-(methylthio)tetrahydro-2H-pyran-3,4,5-triol] | < 100 nM | < 10 nM |  |
| CS[C@H]1O[C@@H](c2ccc(C)c(Cc3ccc(/C=C/CC(C(=O)NC(C)(C)C(N)=O)C(=O)NC(C)(C)C(N)=O)cc3)c2)[C@H](O)[C@@H](O)[C@@H]1O [N1,N3-bis(1-amino-2-methyl-1-oxopropan-2-yl)-2-((E)-3-(4-(2-methyl-5-((2S,3R,4R,5S,6R)-3,4,5-trihydroxy-6-(methylthio)tetrahydro-2H-pyran-2-yl)benzyl)phenyl)allyl)malonamide] | < 100 nM | < 10 nM |  |
| CS[C@H]1O[C@@H](c2ccc(C)c(Cc3ccc(CCCCN)cc3)c2)[C@H](O)[C@@H](O)[C@@H]1O [(2S,3R,4R,5S,6R)-2-(3-(4-(4-aminobutyl)benzyl)-4-methylphenyl)-6-(methylthio)tetrahydro-2H-pyran-3,4,5-triol] | < 10 nM | < 10 nM |  |
| CCN(CC)CCOc1ccc(Cc2cc([C@@H]3O[C@H](SC)[C@@H](O)[C@H](O)[C@H]3O)ccc2Cl)cc1 [(2S,3R,4R,5S,6R)-2-(4-chloro-3-(4-(2-(diethylamino)ethoxy)benzyl)phenyl)-6-(methylthio)tetrahydro-2H-pyran-3,4,5-triol] | < 10 nM | < 10 nM |  |
| CS[C@H]1O[C@@H](c2ccc(C)c(Cc3ccc(CCCCCCC(=O)NC(C)(C)C(N)=O)cc3)c2)[C@H](O)[C@@H](O)[C@@H]1O [N-(1-amino-2-methyl-1-oxopropan-2-yl)-7-(4-(2-methyl-5-((2S,3R,4R,5S,6R)-3,4,5-trihydroxy-6-(methylthio)tetrahydro-2H-pyran-2-yl)benzyl)phenyl)heptanamide] | < 100 nM | < 10 nM |  |
| CNC(=O)C(C)(C)NC(=O)CCCc1ccc(Cc2cc([C@@H]3O[C@H](SC)[C@@H](O)[C@H](O)[C@H]3O)ccc2C)cc1 [N-(2-methyl-1-(methylamino)-1-oxopropan-2-yl)-4-(4-(2-methyl-5-((2S,3R,4R,5S,6R)-3,4,5-trihydroxy-6-(methylthio)tetrahydro-2H-pyran-2-yl)benzyl)phenyl)butanamide] | < 10 nM | < 10 nM |  |
| CS[C@H]1O[C@@H](c2ccc(C)c(Cc3ccc(CCCCNCC(C)(C)C(N)=O)cc3)c2)[C@H](O)[C@@H](O)[C@@H]1O [2,2-dimethyl-3-((4-(4-(2-methyl-5-((3R,4R,5S,6R)-3,4,5-trihydroxy-6-(methylthio)tetrahydro-2H-pyran-2-yl)benzyl)phenyl)butyl)amino)propanamide] | < 10 nM | < 10 nM |  |
| CS[C@H]1O[C@@H](c2ccc(C)c(Cc3ccc(OCC(=O)NC(C)(C)C(N)=O)cc3)c2)[C@H](O)[C@@H](O)[C@@H]1O [2-methyl-2-(2-(4-(2-methyl-5-((2S,3R,4R,5S,6R)-3,4,5-trihydroxy-6-(methylthio)tetrahydro-2H-pyran-2-yl)benzyl)phenoxy)acetamido)propanamide] | < 100 nM | < 10 nM |  |
| CS[C@H]1O[C@@H](c2ccc(C)c(Cc3ccc(CCCC(=O)NCCN(CCNC(=O)CCCc4ccc(Cc5cc([C@@H]6O[C@H](SC)[C@@H](O)[C@H](O)[C@H]6O)ccc5C)cc4)CCNC(=O)CCCc4ccc(Cc5cc([C@@H]6O[C@H](SC)[C@@H](O)[C@H](O)[C@H]6O)ccc5C)cc4)cc3)c2)[C@H](O)[C@@H](O)[C@@H]1O [(S,R,S,R,R,S,R,S,R,R)-N,N′,N″-(nitrilotris(ethane-2,1-diyl))tris(4-(4-(2-methyl-5-((2S,3R,4R,5S,6R)-3,4,5-trihydroxy-6-(methylthio)tetrahydro-2H-pyran-2-yl)benzyl)phenyl)butanamide)] | < 100 nM | < 10 nM |  |
| CS[C@H]1O[C@@H](c2ccc(C)c(Cc3ccc(OCCCC(=O)NCC(N)=O)cc3)c2)[C@H](O)[C@@H](O)[C@@H]1O [N-(2-amino-2-oxoethyl)-4-(4-(2-methyl-5-((2S,3R,4R,5S,6R)-3,4,5-trihydroxy-6-(methylthio)tetrahydro-2H-pyran-2-yl)benzyl)phenoxy)butanamide] | < 100 nM | < 10 nM |  |
| CS[C@H]1O[C@@H](c2ccc(Cl)c(Cc3ccc(OCC(=O)NC(CO)(CO)CO)cc3)c2)[C@H](O)[C@@H](O)[C@@H]1O [2-(4-(2-chloro-5-((2S,3R,4R,5S,6R)-3,4,5-trihydroxy-6-(methylthio)tetrahydro-2H-pyran-2-yl)benzyl)phenoxy)-N-(1,3-dihydroxy-2-(hydroxymethyl)propan-2-yl)acetamide] | < 100 nM | < 10 nM |  |
| CS[C@H]1O[C@@H](c2ccc(Cl)c(Cc3ccc(OCCNC(=O)NC(C)(C)CO)cc3)c2)[C@H](O)[C@@H](O)[C@@H]1O [1-(2-(4-(2-chloro-5-((2S,3R,4R,5S,6R)-3,4,5-trihydroxy-6-(methylthio)tetrahydro-2H-pyran-2-yl)benzyl)phenoxy)ethyl)-3-(1-hydroxy-2-methylpropan-2-yl)urea] | < 10 nM | < 10 nM |  |
| COCCOCCOc1ccc(Cc2cc([C@@H]3O[C@H](SC)[C@@H](O)[C@H](O)[C@H]3O)ccc2C)cc1 [(2S,3R,4R,5S,6R)-2-(3-(4-(2-(2-methoxyethoxy)ethoxy)benzyl)-4-methylphenyl)-6-(methylthio)tetrahydro-2H-pyran-3,4,5-triol] | < 10 nM | < 10 nM |  |
| CS[C@H]1O[C@@H](c2ccc(C)c(Cc3ccc(OCCCC(=O)N4CCN(C)CC4)cc3)c2)[C@H](O)[C@@H](O)[C@@H]1O [4-(4-(2-methyl-5-((2S,3R,4R,5S,6R)-3,4,5-trihydroxy-6-(methylthio)tetrahydro-2H-pyran-2-yl)benzyl)phenoxy)-1-(4-methylpiperazin-1-yl)butan-1-one] | < 100 nM | < 10 nM |  |
| CS[C@H]1O[C@@H](c2ccc(C)c(Cc3ccc(OCCNC4(C(N)=O)CCCC4)cc3)c2)[C@H](O)[C@@H](O)[C@@H]1O [1-((2-(4-(2-methyl-5-((2S,3R,4R,5S,6R)-3,4,5-trihydroxy-6-(methylthio)tetrahydro-2H-pyran-2-yl)benzyl)phenoxy)ethyl)amino)cyclopentanecarboxamide] | < 100 nM | < 10 nM |  |
